What was measured:
[1] = test system: paclitaxel-induced hyperalgesia; assay: Paclitaxel-induced hyperalgesia in the rat (paw-pressure test); format: in vivo; conditions: PCT-treated rats, mean ± S.E.M.; for Mechanical threshold (g), After Treatment 15 min: 15 min after treatment; for Mechanical threshold (g), After Treatment 30 min: 30 min after treatment; for Mechanical threshold (g), After Treatment 45 min: 45 min after treatment
Method: In all methods, paw mechanical sensitivity was determined using either the paw pressure test or the incapacitance test. The paw pressure test utilizes a Randall & Selitto apparatus, exerting a force that increases at constant rate (32 g/s). The stimulus at which rats withdrawn the paw was evaluated before and at different times after treatment. Results represent the mean of mechanical thresholds expressed as grams. To avoid any possible damage to the animal paw the maximum applied force was fixed at 240 g. Peripheral neuropathy is induced by repeated administration of vincristine, paclitaxel or oxaliplatin to adult male Sprague-Dawley rats (150-200 g, supplier Harlan). The following protocols were used respectively: • Vincristine: the drug was injected by intravenous route at the dose of 150 μg/kg. The treatment was performed every 2 days, for 5 times, until a cumulative dose of 750 μg/kg was reached. Paw pressure test was performed 4 days after the last injection (Marchand F. et al. 2003, Brain Res. 980:117-120). • Paclitaxel: paclitaxel (PCT) neuropathy was induced by intraperitoneal administration of 0.5 mg/kg once a day, on days 1, 3, 5 and 8. Cumulative paclitaxel dose was 2 mg/kg. The pharmacological test was performed 14-18 days after the last paclitaxel injection (Polomano R. C. et al. 2001, Pain 94:293-304). • Oxaliplatin: 2.4 mg/kg were injected by intraperitoneal route for 5 consecutive days followed by 2 days suspension (one cicle). A total of 3 cycles was performed, reaching a cumulative dose of 36 mg/kg (Cavaletti G. 2001, Eur. J. Cancer 37:2457-2463). The test was performed 48 h after the last oxaliplatin injection. 2. Osteoarthritic Pain

melting point [°C] | SMILES | Mechanical threshold (g), After Treatment 15 min ([1]; 3 mg/kg i.v.) [g] | Mechanical threshold (g), After Treatment 30 min ([1]; 3 mg/kg i.v.) [g] | Mechanical threshold (g), After Treatment 45 min ([1]; 3 mg/kg i.v.) [g] | Mechanical threshold (g), After Treatment 15 min ([1]; 1 mg/kg i.v.) [g] | Mechanical threshold (g), After Treatment 30 min ([1]; 1 mg/kg i.v.) [g] | Mechanical threshold (g), After Treatment 45 min ([1]; 1 mg/kg i.v.) [g]
208 to 209 | O=C1CC[C@@H]2CN(S(=O)(=O)c3ccc(F)c(F)c3)CCN12 [Example 5, (R)-(+)-2-(3,4-difluorophenylsulfonyl)hexahydro pyrrolo[1,2-a]pyrazin-6(7H)-one] | – | – | – | – | – | –
144 to 145 | COc1cccc(S(=O)(=O)N2CCN3C(=O)CC[C@@H]3C2)c1 [Example 15, (R)-2-(3-methoxyphenylsulfonyl)hexahydro pyrrolo[1,2-a]pyrazin-6(7H)-one] | – | – | – | – | – | –
177 to 179 | O=C1CC[C@H]2CN(S(=O)(=O)c3cccc(F)c3)CCN12 [Example 2, (S)-(−)2-(3-fluorophenylsulfonyl)hexahydro pyrrolo[1,2-a]pyrazin-6(7H)-one] | – | – | – | – | – | –
133 to 134 | Cc1cccc(S(=O)(=O)N2CCN3C(=O)CC[C@@H]3C2)c1 [Example 7, (R)-(+)-2-(m-tolylsulfonyl)hexahydro pyrrolo[1,2-a]pyrazin-6(7H)-one] | 38.7 ± 2.2 | 47.6 ± 2.4 | 36.4 ± 2.5 | – | – | –
242 to 243 | N#Cc1ccc(S(=O)(=O)N2CCN3C(=O)CC[C@@H]3C2)cc1 [Example 13, (R)-(+)-4-(6-oxohexahydropyrrolo[1,2-a]pyrazin-2(1H)-ylsulfonyl) benzonitrile] | – | – | – | 35.6 ± 3.1 | 39.7 ± 2.4 | 34.8 ± 3.3
226 to 227 | O=C1CC[C@@H]2CN(S(=O)(=O)c3ccc(C(F)(F)F)cc3)CCN12 [Example 10, (R)-(+)-2-(4-(trifluoromethyl)phenylsulfonyl) hexahydropyrrolo [1,2-a]pyrazin-6(7H)-one] | – | – | – | – | – | –
172 to 174 | O=C1CC[C@@H]2CN(S(=O)(=O)c3cccc(C(F)(F)F)c3)CCN12 [Example 9, (R)-(+)-2-(3-(tifluoromethyl)phenylsulfonyl) hexahydropyrrolo [1,2-a]pyrazin-6(7H)-one] | 41.6 ± 3.6 | 44.5 ± 2.8 | 42.9 ± 4.3 | – | – | –
180 to 181 | N#Cc1cccc(S(=O)(=O)N2CCN3C(=O)CC[C@@H]3C2)c1 [Example 12, (R)-3-(6-oxohexahydropyrrolo[1,2-a]pyrazin-2(1H)-ylsulfonyl) benzonitrile] | 39.8 ± 3.7 | 41.5 ± 3.8 | 39.2 ± 4.4 | – | – | –
142 to 144 | O=C1CC[C@H]2CN(S(=O)(=O)c3ccccc3F)CCN12 [Example 1, (S)-(−)2-(2-fluorophenylsulfonyl)hexahydro pyrrolo[1,2-a]pyrazin-6(7H)-one] | – | – | – | – | – | –
165 to 166 | O=C1CC[C@@H]2CN(S(=O)(=O)c3cccnc3)CCN12 [Example 16, (R)-2-(pyridin-3-ylsulfonyl)hexahydro pyrrolo[1,2-a]pyrazin-6(7H)-one] | – | – | – | – | – | –

More lines, now with the values behind:

SMILES | melting point [°C] | Mechanical threshold (g), After Treatment 15 min ([1]; 3 mg/kg i.v.) [g] | Mechanical threshold (g), After Treatment 30 min ([1]; 3 mg/kg i.v.) [g] | Mechanical threshold (g), After Treatment 45 min ([1]; 3 mg/kg i.v.) [g] | Mechanical threshold (g), After Treatment 15 min ([1]; 1 mg/kg i.v.) [g] | Mechanical threshold (g), After Treatment 30 min ([1]; 1 mg/kg i.v.) [g] | Mechanical threshold (g), After Treatment 45 min ([1]; 1 mg/kg i.v.) [g]
O=C(c1cccc(F)c1)N1CCN2C(=O)CC[C@H]2C1 [Example 19, (S)-2-(3-fluorobenzoyl) hexahydropyrrolo [1,2-a]pyrazin-6(7H)-one] | 161 to 162 | – | – | – | – | – | –
O=C(c1cccc(F)c1)N1CCN2C(=O)CC[C@@H]2C1 [Example 21, (R)-2-(3-fluorobenzoyl) hexahydropyrrolo [1,2-a]pyrazin-6(7H)-one] | 161 to 162 | 40.9 ± 3.5 | 46.2 ± 4.3 | 37.6 ± 4.3 | – | – | –
Cc1ccc(N2CCN3C(=O)CCC3C2=O)cc1 (centres unmarked) [Example 24, 2-p-Tolyl-tetrahydro-pyrrolo[1,2-a]pyrazine-1,6-dione] | 115 to 117 | 42.2 ± 2.6 | 43.4 ± 4.1 | 36.5 ± 4.2 | – | – | –
O=C(c1ccccc1F)N1CCN2C(=O)CC[C@H]2C1 [Example 18, (S)-2-(2-fluorobenzoyl) hexahydropyrrolo [1,2-a]pyrazin-6(7H)-one] | 123 to 124 | – | – | – | – | – | –
Cc1ccccc1S(=O)(=O)N1CCN2C(=O)CC[C@@H]2C1 [Example 6, (R)-(+)-2-(o-tolylsulfonyl)hexahydro pyrrolo[1,2-a]pyrazin-6(7H)-one] | 68 to 70 | 49.4 ± 3.0 | 48.8 ± 2.8 | 40.7 ± 2.2 | – | – | –
O=C(c1ccccc1F)N1CCN2C(=O)CC[C@@H]2C1 [Example 20, (R)-2-(2-fluorobenzoyl) hexahydropyrrolo [1,2-a]pyrazin-6(7H)-one] | 123 to 124 | 41.4 ± 2.3 | 45.7 ± 3.5 | 35.8 ± 3.0 | – | – | –
N#Cc1ccccc1S(=O)(=O)N1CCN2C(=O)CC[C@@H]2C1 [Example 11, (R)-2-(6-oxohexahydropyrrolo[1,2-a]pyrazin-2(1H)-ylsulfonyl) benzonitrile] | 198 to 199 | 45.3 ± 1.6 | 50.7 ± 2.3 | 48.4 ± 2.7 | – | – | –

Reference: US8334286B2, “Substituted pyrrolo[1,2-A] pyrazines, compositions containing these, processes of making these, and uses thereof” (Neurotune AG, priority 2008, dated 2012)
